Test results reported in ChEMBL document CHEMBL1128792, “Aromatic amino acid phosphoramidate di- and triesters of 3-azido-3-deoxythymidine (AZT) are non-toxic inhibitors of HIV-1 replication” (Bioorg Med Chem Lett, 1995).

Tests used:
[1] = test system: CCRF-CEM; assay: Cytotoxic concentration towards CEM cells; assay type: functional; conditions: Homo sapiens
[2] = Cytotoxic concentration towards peripheral blood mononuclear cells; assay type: functional; conditions: Homo sapiens
[3] = target: Human immunodeficiency virus type 1 reverse transcriptase (Human immunodeficiency virus 1, UniProt Q72547); assay: Tested for the inhibition towards HIV-reverse transcriptase
[4] = Effective molar concentration required to inhibit the replication of HIV-1 in human peripheral blood mononuclear cells by 50% (PBMC) was determined; assay type: functional

Structure (SMILES) | CC50 [1] | CC50 [2] | IC50 [3] | EC50 [4]
COC(=O)[C@H](Cc1ccccc1)NP(=O)(O)OCC1OC(n2cc(C)c(=O)[nH]c2=O)CC1N=[N+]=[N-] (stereo partly specified) | > 100 µM | > 100 µM | > 100 µM | 0.6 µM
Cc1cn([C@H]2C[C@H](N=[N+]=[N-])[C@@H](CO)O2)c(=O)[nH]c1=O [ZIDOVUDINE] | 14.3 µM | > 100 µM | 0.01 µM | 0.08 µM
COC(=O)[C@H](Cc1c[nH]c2ccccc12)NP(=O)(O)OC[C@H]1O[C@@H](n2cc(C)c(=O)[nH]c2=O)C[C@@H]1N=[N+]=[N-] | > 100 µM | > 100 µM | > 100 µM | 0.01 µM
COC(=O)[C@H](Cc1ccccc1)NP(=O)(OC)OCC1OC(n2cc(C)c(=O)[nH]c2=O)CC1N=[N+]=[N-] (stereo partly specified) | > 50 µM | > 100 µM | – | 0.09 µM
COC(=O)[C@H](Cc1c[nH]c2ccccc12)NP(=O)(OCCC#N)OCC1OC(n2cc(C)c(=O)[nH]c2=O)CC1N=[N+]=[N-] (stereo partly specified) | > 100 µM | > 100 µM | > 100 µM | 0.4 µM
COC(=O)[C@H](Cc1c[nH]c2ccccc12)NP(=O)(OC)OCC1OC(n2cc(C)c(=O)[nH]c2=O)CC1N=[N+]=[N-] (stereo partly specified) | > 50 µM | > 50 µM | – | 0.3 µM
COC(=O)[C@H](Cc1ccccc1)NP(=O)(OCCC#N)OCC1OC(n2cc(C)c(=O)[nH]c2=O)CC1N=[N+]=[N-] (stereo partly specified) | > 100 µM | > 100 µM | > 100 µM | > 1 µM
